The target of test [1] is T1, MRCKA (Homo sapiens, UniProt Q5VT25).
T1 construct: purchased Eurofins DiscoverX KINOMEscan
Nature of the test: KINOMEscan 1 μM, MRCKA. The format is binding. Conditions: 1000 nM; Entrez CDC42BPA; read-out: Percent Control. The source says: (§1) Supplement cells-12-00287-s001.zip/File S2. KinomeScan data for the CAMKK2 probe and negative control.xlsx, sheet "SGC-CAMKK2-1" | column: Percent Control

The target in test [2] is T2, GRK3 (Homo sapiens, UniProt P35626).
T2 construct: purchased Eurofins DiscoverX KINOMEscan
The experiment in a line: KINOMEscan 1 μM, GRK3. The format is binding. The settings on record: 1000 nM; Entrez ADRBK2; read-out: Percent Control.
From the text: as §1

Test [3] deals with T3, HASPIN (Homo sapiens, UniProt Q8TF76).
T3 construct: purchased Eurofins DiscoverX KINOMEscan
Nature of the test: KINOMEscan 1 μM, HASPIN. The format is binding. Conditions: 1000 nM; Entrez GSG2; read-out: Percent Control.
From the text: as §1

In test [4] the target is T4, TAOK1 (Homo sapiens, UniProt Q7L7X3).
T4 construct: purchased Eurofins DiscoverX KINOMEscan
Nature of the test: KINOMEscan 1 μM, TAOK1. The test is classed as binding. Conditions: 1000 nM; Entrez TAOK1; read-out: Percent Control.
From the text: as §1

Test [5] concerns the target T5, MEK5 (Homo sapiens, UniProt Q13163).
T5 construct: purchased Eurofins DiscoverX KINOMEscan
The experiment in a line: KINOMEscan 1 μM, MEK5. The test is classed as binding. Conditions: 1000 nM; Entrez MAP2K5; read-out: Percent Control.
From the text: as §1

The target in test [6] is T6, NLK (Homo sapiens, UniProt Q9UBE8).
T6 construct: purchased Eurofins DiscoverX KINOMEscan
Nature of the test: KINOMEscan 1 μM, NLK. The test is classed as binding. Conditions: 1000 nM; Entrez NLK; read-out: Percent Control.
From the text: as §1

Test [7] concerns the target T7, IRAK3 (Homo sapiens, UniProt Q9Y616).
T7 construct: purchased Eurofins DiscoverX KINOMEscan
The experiment in a line: KINOMEscan 1 μM, IRAK3. Conditions: 1000 nM; Entrez IRAK3; read-out: Percent Control. The test is classed as binding.
From the text: as §1

Test [8] has as its target T8, MAP3K1 (Homo sapiens, UniProt Q13233).
T8 construct: purchased Eurofins DiscoverX KINOMEscan
The experiment in a line: KINOMEscan 1 μM, MAP3K1. The settings on record: 1000 nM; Entrez MAP3K1; read-out: Percent Control. The test is classed as binding.
From the text: as §1

In test [9] the target is T9, STK39 (Homo sapiens, UniProt Q9UEW8).
T9 construct: purchased Eurofins DiscoverX KINOMEscan
The experiment in a line: KINOMEscan 1 μM, STK39. The test is classed as binding. Conditions: 1000 nM; Entrez STK39; read-out: Percent Control.
From the text: as §1

Test [10] addresses T10, PFPK5(P.falciparum) (Plasmodium falciparum, UniProt P61075).
T10 construct: purchased Eurofins DiscoverX KINOMEscan
The experiment in a line: DiscoverX KINOMEscan binding assay at 1 μM, PFPK5(P.falciparum). The settings on record: PFPK5(P.falciparum) (MAL13P1.279); Compound Concentration 1000 nM; read-out: Percent Control.
From the text: as §1

In test [11] the target is T11, EIF2AK1 (Homo sapiens, UniProt Q9BQI3).
T11 construct: purchased Eurofins DiscoverX KINOMEscan
Nature of the test: KINOMEscan 1 μM, EIF2AK1. The format is binding. Conditions: 1000 nM; Entrez EIF2AK1; read-out: Percent Control.
From the text: as §1

Test [12] addresses T12, CLK4 (Homo sapiens, UniProt Q9HAZ1).
T12 construct: purchased Eurofins DiscoverX KINOMEscan
Nature of the test: KINOMEscan 1 μM, CLK4. The format is binding. Conditions: 1000 nM; Entrez CLK4; read-out: Percent Control.
From the text: as §1

In test [13] the target is T13, PIK3CG (Homo sapiens, UniProt P48736).
T13 construct: purchased Eurofins DiscoverX KINOMEscan
The experiment in a line: KINOMEscan 1 μM, PIK3CG. The test is classed as binding. The settings on record: 1000 nM; Entrez PIK3CG; read-out: Percent Control.
From the text: as §1

The target in test [14] is T14, TXK (Homo sapiens, UniProt P42681).
T14 construct: purchased Eurofins DiscoverX KINOMEscan
The experiment in a line: DiscoverX KINOMEscan binding assay at 1 μM, TXK. Conditions: Compound Concentration 1000 nM, read-out: Percent Control.
From the text: as §1

In test [15] the target is T15, PIK3CB (Homo sapiens, UniProt P42338).
T15 construct: purchased Eurofins DiscoverX KINOMEscan
The experiment in a line: DiscoverX KINOMEscan binding assay at 1 μM, PIK3CB. The settings on record: Compound Concentration 1000 nM, read-out: Percent Control.
From the text: as §1

Test [16] deals with T16, RSK1(Kin.Dom.2-C-terminal) (Homo sapiens, UniProt Q15418).
T16 construct: RSK1(Kin.Dom.2-C-terminal); purchased Eurofins DiscoverX KINOMEscan
Nature of the test: KINOMEscan 1 μM, RSK1(Kin.Dom.2-C-terminal). The format is binding. Conditions: 1000 nM; Entrez RPS6KA1; read-out: Percent Control.
From the text: as §1

In test [17] the target is T17, HUNK (Homo sapiens, UniProt P57058).
T17 construct: purchased Eurofins DiscoverX KINOMEscan
The experiment in a line: KINOMEscan 1 μM, HUNK. The settings on record: 1000 nM; Entrez HUNK; read-out: Percent Control. The format is binding.
From the text: as §1

The target in test [18] is T18, FGFR1 (Homo sapiens, UniProt P11362).
T18 construct: purchased Eurofins DiscoverX KINOMEscan
Nature of the test: KINOMEscan 1 μM, FGFR1. The format is binding. The settings on record: 1000 nM; Entrez FGFR1; read-out: Percent Control.
From the text: as §1

In test [19] the target is T19, CSNK2A1 (Homo sapiens, UniProt P68400).
T19 construct: purchased Eurofins DiscoverX KINOMEscan
The experiment in a line: KINOMEscan 1 μM, CSNK2A1. The format is binding. Conditions: 1000 nM; Entrez CSNK2A1; read-out: Percent Control.
From the text: as §1

Test [20] deals with T20, ITK (Homo sapiens, UniProt Q08881).
T20 construct: purchased Eurofins DiscoverX KINOMEscan
Nature of the test: KINOMEscan binding assay at 1 μM, ITK. Conditions: Compound Concentration 1000 nM; read-out: Percent Control. An excerpt: (§2) Supplement cells-12-00287-s001.zip/File S2. KinomeScan data for the CAMKK2 probe and negative control.xlsx, sheet "SGC-CAMKK2-1N" | column: Percent Control

Test [21] concerns the target T21, EPHA7 (Homo sapiens, UniProt Q15375).
T21 construct: purchased Eurofins DiscoverX KINOMEscan
The experiment in a line: KINOMEscan binding assay at 1 μM, EPHA7. Conditions: Compound Concentration 1000 nM; read-out: Percent Control.
From the text: as §2

In test [22] the target is T22, CAMK2B (Homo sapiens, UniProt Q13554).
T22 construct: purchased Eurofins DiscoverX KINOMEscan
Nature of the test: KINOMEscan at 1 μM, CAMK2B. The format is binding. Conditions: 1000 nM, read-out: Percent Control.
From the text: as §2

For test [23], the target named is T23, GAK (Homo sapiens, UniProt O14976).
T23 construct: purchased Eurofins DiscoverX KINOMEscan
Nature of the test: KINOMEscan at 1 μM, GAK. The format is binding. The settings on record: 1000 nM, read-out: Percent Control.
From the text: as §2

The target in test [24] is T24, MARK3 (Homo sapiens, UniProt P27448).
T24 construct: purchased Eurofins DiscoverX KINOMEscan
Nature of the test: KINOMEscan at 1 μM, MARK3. The test is classed as binding. Conditions: 1000 nM, read-out: Percent Control.
From the text: as §2

Test [25] concerns the target T25, PAK4 (Homo sapiens, UniProt O96013).
T25 construct: purchased Eurofins DiscoverX KINOMEscan
The experiment in a line: KINOMEscan at 1 μM, PAK4. The test is classed as binding. The settings on record: 1000 nM, read-out: Percent Control.
From the text: as §2

In test [26] the target is T26, DAPK3 (Homo sapiens, UniProt O43293).
T26 construct: purchased Eurofins DiscoverX KINOMEscan
The experiment in a line: KINOMEscan at 1 μM, DAPK3. The format is binding. The settings on record: 1000 nM, read-out: Percent Control.
From the text: as §2

The target in test [27] is T27, OSR1 (Homo sapiens, UniProt O95747).
T27 construct: purchased Eurofins DiscoverX KINOMEscan
Nature of the test: KINOMEscan at 1 μM, OSR1. Conditions: 1000 nM, read-out: Percent Control. The test is classed as binding.
From the text: as §2

Test [28] concerns the target T28, ICK (Homo sapiens, UniProt Q9UPZ9).
T28 construct: purchased Eurofins DiscoverX KINOMEscan
The experiment in a line: KINOMEscan at 1 μM, ICK. The format is binding. The settings on record: 1000 nM, read-out: Percent Control.
From the text: as §2

Test [29] has as its target T29, ABL1(E255K)-phosphorylated (Homo sapiens, UniProt P00519, E255K).
T29 construct: purchased Eurofins DiscoverX KINOMEscan
The experiment in a line: KINOMEscan at 1 μM, ABL1(E255K)-phosphorylated. The settings on record: 1000 nM, read-out: Percent Control. The test is classed as binding.
From the text: as §2

For test [30], the target named is T30, CHEK1 (Homo sapiens, UniProt O14757).
T30 construct: purchased Eurofins DiscoverX KINOMEscan
The experiment in a line: KINOMEscan at 1 μM, CHEK1. The test is classed as binding. The settings on record: 1000 nM, read-out: Percent Control.
From the text: as §2

Test [31] has as its target T31, MYO3A (Homo sapiens, UniProt Q8NEV4).
T31 construct: purchased Eurofins DiscoverX KINOMEscan
Nature of the test: KINOMEscan at 1 μM, MYO3A. The format is binding. Conditions: 1000 nM, read-out: Percent Control.
From the text: as §2

In test [32] the target is T32, PIK3CA (Homo sapiens, UniProt P42336).
T32 construct: purchased Eurofins DiscoverX KINOMEscan
The experiment in a line: KINOMEscan at 1 μM, PIK3CA. The test is classed as binding. The settings on record: 1000 nM, read-out: Percent Control.
From the text: as §2

T24 sequence (P27448 whole entry): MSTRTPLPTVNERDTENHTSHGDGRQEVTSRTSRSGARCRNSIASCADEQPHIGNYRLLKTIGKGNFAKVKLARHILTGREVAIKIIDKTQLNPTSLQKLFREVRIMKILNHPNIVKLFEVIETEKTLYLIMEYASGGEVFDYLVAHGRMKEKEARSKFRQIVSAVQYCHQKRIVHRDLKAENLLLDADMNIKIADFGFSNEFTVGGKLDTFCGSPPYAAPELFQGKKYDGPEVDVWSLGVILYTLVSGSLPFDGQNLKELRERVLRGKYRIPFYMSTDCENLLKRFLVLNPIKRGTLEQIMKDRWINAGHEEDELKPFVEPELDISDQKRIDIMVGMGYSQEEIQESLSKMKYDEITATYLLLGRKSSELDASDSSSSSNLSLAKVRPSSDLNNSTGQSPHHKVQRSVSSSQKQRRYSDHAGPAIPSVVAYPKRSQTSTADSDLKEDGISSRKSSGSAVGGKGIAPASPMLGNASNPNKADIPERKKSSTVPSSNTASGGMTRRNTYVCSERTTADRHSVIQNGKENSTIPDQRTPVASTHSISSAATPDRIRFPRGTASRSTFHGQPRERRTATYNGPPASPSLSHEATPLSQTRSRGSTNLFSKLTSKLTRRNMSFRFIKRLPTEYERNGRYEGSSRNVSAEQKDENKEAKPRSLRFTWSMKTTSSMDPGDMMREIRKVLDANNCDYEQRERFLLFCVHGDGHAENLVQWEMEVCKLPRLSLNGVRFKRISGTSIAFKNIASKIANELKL
T7 sequence (Q9Y616 whole entry): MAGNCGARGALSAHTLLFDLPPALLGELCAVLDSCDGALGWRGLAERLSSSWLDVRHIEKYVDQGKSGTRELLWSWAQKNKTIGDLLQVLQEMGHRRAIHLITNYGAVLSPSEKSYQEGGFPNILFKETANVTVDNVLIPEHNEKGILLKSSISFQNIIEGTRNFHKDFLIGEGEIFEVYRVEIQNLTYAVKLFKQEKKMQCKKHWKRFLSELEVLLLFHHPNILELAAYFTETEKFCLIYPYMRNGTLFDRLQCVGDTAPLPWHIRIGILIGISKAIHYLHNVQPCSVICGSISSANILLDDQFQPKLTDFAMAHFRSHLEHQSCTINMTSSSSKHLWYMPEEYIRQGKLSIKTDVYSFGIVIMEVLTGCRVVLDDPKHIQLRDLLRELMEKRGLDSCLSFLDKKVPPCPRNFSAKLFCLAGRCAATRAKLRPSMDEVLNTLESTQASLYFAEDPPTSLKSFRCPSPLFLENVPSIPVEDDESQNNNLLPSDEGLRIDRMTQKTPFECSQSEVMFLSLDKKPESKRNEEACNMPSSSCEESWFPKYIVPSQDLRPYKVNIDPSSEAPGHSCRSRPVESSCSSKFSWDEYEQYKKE
T32 sequence (P42336 whole entry): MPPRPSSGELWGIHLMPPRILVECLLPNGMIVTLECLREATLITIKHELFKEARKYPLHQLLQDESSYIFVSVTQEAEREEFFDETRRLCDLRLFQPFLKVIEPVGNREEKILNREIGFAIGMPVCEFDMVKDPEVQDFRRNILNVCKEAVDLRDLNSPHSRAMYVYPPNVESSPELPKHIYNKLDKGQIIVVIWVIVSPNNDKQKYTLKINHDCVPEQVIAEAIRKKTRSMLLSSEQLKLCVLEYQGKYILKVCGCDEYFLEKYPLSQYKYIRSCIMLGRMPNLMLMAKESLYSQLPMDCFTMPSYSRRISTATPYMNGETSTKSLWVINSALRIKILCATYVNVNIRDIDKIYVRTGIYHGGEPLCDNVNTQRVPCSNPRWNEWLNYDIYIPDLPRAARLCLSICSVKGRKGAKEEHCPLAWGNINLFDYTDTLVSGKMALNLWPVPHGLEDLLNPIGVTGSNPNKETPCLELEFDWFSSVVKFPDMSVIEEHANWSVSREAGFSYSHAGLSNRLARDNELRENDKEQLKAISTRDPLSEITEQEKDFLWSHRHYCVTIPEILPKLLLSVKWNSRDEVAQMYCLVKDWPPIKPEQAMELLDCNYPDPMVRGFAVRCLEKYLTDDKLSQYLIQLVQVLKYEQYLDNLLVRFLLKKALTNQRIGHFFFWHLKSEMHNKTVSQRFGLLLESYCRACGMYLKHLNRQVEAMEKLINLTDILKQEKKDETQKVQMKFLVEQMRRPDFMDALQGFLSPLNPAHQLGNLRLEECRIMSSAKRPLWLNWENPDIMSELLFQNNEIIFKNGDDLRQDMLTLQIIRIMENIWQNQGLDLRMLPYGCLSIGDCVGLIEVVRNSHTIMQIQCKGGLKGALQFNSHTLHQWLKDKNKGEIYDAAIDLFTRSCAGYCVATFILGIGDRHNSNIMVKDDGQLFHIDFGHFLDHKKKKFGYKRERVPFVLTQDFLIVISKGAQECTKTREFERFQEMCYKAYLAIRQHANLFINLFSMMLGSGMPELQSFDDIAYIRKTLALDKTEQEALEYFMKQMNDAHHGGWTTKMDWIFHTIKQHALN
T16 sequence (Q15418 392-735 limits assumed): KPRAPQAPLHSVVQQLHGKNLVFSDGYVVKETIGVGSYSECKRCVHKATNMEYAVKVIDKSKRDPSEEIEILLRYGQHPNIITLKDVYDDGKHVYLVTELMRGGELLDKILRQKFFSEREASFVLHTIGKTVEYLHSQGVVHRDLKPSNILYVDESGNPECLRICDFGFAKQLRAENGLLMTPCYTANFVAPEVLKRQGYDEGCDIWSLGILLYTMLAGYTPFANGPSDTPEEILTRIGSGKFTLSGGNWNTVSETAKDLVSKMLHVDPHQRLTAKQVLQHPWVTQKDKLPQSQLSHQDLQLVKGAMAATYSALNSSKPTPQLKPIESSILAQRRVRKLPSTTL
T1 sequence (Q5VT25 whole entry): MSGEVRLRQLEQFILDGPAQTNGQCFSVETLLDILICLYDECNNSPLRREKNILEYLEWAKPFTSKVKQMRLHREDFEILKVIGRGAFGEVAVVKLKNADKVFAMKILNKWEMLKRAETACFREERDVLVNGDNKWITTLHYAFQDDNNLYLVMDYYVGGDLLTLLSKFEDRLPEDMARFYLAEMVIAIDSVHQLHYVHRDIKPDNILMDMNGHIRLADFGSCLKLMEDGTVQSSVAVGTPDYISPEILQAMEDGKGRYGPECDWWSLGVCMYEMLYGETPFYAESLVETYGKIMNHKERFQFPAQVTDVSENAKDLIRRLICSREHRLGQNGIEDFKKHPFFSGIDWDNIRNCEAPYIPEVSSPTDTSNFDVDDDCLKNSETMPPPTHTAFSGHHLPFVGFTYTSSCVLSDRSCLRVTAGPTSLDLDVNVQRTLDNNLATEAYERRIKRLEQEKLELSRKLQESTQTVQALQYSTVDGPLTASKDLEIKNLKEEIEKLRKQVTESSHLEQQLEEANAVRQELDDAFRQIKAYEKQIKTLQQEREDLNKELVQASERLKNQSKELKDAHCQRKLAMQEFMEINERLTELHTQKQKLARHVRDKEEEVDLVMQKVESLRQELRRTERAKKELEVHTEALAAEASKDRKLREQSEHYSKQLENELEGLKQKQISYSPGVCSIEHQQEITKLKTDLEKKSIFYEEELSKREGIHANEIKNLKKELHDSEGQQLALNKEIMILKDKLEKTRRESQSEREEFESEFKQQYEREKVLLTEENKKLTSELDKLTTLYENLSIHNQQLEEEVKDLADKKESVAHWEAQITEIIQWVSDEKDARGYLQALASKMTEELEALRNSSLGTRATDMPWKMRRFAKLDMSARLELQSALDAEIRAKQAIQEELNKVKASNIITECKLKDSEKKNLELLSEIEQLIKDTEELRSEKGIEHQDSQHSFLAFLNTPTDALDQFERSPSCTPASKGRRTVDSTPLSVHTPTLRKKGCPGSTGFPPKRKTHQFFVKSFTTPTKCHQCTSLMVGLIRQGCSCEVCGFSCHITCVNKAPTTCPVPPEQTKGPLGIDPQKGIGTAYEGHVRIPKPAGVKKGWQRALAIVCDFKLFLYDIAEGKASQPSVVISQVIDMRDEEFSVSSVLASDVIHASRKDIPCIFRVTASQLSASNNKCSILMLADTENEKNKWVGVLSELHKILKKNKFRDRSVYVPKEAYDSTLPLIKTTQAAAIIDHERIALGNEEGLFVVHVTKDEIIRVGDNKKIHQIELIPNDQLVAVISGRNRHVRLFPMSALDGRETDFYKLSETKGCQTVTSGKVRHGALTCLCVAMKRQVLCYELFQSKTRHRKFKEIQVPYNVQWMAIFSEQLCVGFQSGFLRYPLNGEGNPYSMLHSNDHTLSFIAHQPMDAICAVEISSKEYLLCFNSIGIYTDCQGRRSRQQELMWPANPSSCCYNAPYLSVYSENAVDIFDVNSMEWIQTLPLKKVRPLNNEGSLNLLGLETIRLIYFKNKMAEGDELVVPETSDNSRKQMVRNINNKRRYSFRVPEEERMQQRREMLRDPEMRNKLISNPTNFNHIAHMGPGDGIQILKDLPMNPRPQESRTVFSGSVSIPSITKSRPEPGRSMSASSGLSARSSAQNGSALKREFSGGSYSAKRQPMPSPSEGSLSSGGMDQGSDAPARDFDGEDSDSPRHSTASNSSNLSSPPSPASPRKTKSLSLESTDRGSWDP
T30 sequence (O14757 whole entry): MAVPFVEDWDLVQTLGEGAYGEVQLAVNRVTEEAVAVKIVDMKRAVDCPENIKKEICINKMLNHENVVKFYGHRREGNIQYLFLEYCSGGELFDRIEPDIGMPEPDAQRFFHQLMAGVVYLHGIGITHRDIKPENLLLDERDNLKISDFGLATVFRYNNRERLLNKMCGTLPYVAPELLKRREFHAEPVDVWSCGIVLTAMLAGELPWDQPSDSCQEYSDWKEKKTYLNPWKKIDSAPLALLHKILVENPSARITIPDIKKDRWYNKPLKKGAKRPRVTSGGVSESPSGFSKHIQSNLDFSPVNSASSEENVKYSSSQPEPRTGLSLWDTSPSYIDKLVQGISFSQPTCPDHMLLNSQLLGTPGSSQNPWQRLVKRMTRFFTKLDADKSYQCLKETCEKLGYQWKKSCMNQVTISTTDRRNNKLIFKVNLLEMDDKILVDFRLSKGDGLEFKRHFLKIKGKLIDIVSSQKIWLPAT

On to `Cc1cccc(-c2cnc3occ(-c4ccc(C(=O)O)c(C5CCCC5)c4)c3c2)c1` [SGC-CAMKK2-1 (YL-36)], for which the remaining binding at 1 µM in test [1] turned out to be 100%; in test [2], 100%; in test [3] it was 100%; in [4] it was 78%; in [5] it was 84%; in test [6] it was 81%. For the same molecule, the remaining binding at 1 µM in test [7] came out at 88%; in test [8], 100%; in [9], 64%; in [10] it was 100%; in test [11] it was 100%; in test [12], 100%. Besides, the remaining binding at 1 µM amounted to 76% in test [13]; 100% in [14]; 100% in test [15]; 80% in [16]; 94% in [17]; 100% in [18]. For the same molecule, the remaining binding at 1 µM in test [19] came out at 94%.

For the molecule `O=C(O)c1ccc(-c2coc3ncc(-c4ccccc4)cc23)cc1Cl` [SGC-CAMKK2-1N (UNC-YL-83)], the remaining binding at 1 µM turned out to be 100% in test [20]; 100% in test [21]; 69% in test [22]; 88% in test [23]; 61% in test [24]; 82% in test [25]. The remaining binding at 1 µM in [26] was determined as 71%; in [27], 64%; in [28], 71%; in test [29], 65%; in test [30] it was 91%; in [31], 72%. Besides, the remaining binding at 1 µM in test [32] was determined as 74%.

The values above are taken from PMC9856672, “SGC-CAMKK2-1: A Chemical Probe for CAMKK2” (Cells, 2023).
